# Assay results as given in patent US10086006B2, “Method for improving drug treatments in mammals” (priority 2013, dated 2018).
# Like-named read-outs stand apart in the source and are kept apart here.
# Assays:
# [1] = system: Escherichia coli ATCC 25922; experiment: Neutropenic murine-thigh infection model; assay type: in vivo; conditions: neutropenic mice
# Method: In vivo animal studies utilizing the neutropenic murine-thigh model were conducted to confirm key results obtained from the in vitro PK-PD infection models. Initial goals of the studies were to confirm the presence of a clinically-relevant fosfomycin-resistant subpopulation in vivo and to confirm % T>RIC was the PK-PD measure that predicted response.
# In brief, six-week-old specific-pathogen-free female CD1 (ICR/Swiss) mice were rendered neutropenic by two intra-peritoneal injections of cyclophosphamide, 150 mg/kg of body weight 4 days prior to the study and 100 mg/kg 1 day prior to the study. The challenge isolate was Escherichia coli ATCC 25922 (fosfomycin MIC, 1 mg/L), which was the same strain used in the aforementioned in vitro PK-PD infection model studies. […]
# To determine which PK-PD measure best described efficacy, the number of bacteria in the thigh at the end of 24 hours of therapy (or earlier for some of the lowest doses) was correlated with 1) the Cmax:MIC ratio, 2) the 24-hour AUC0-24:MIC ratio, 3) the percentage of the dosing interval during that serum concentrations exceed the MIC, and 4) the percentage of the dosing interval during that serum concentrations exceed the RIC for each of the dosage regimens studied. […] The correlation between efficacy and each of the […] PK-PD indices was determined by nonlinear least-squares multivariate regression. […]
# [2] = system: fosfomycin-resistant E. coli subpopulation (ATCC 25922); experiment: Susceptibility (agar MIC, RIC) of the inherently fosfomycin-resistant subpopulation; assay type: cell-based, Escherichia coli; conditions: resistant subpopulation within the standard starting inoculum 5×10^5 CFU/mL
# Method: RIC as used herein refers to the resistant inhibitory concentration and identifies the concentrations of antimicrobial required to inhibit the less susceptible or ‘resistant’ mutant subpopulation of organisms. RIC is a new term coined by the inventors of the present invention and is utilized throughout the specification herewith.
# (§1) Another reason may be the volume of the micro-titer well (100-200 μL) used in the test method is small, containing 50,000-100,000 CFU. The inherently fosfomycin-resistant subpopulation has a frequency of 1 in 350,000 CFU. Thus, for fosfomycin, the standard susceptibility test method is an insensitive measure of the drug concentration required to inhibit a clinically relevant bacterial inoculum.
# (§2) Note the relatively stronger relationship between the change in bacterial density and AUC0-24:RIC ratio and % T>RIC compared with that for Cmax:RIC ratio, where RIC is the concentration needed to inhibit the fosfomycin-resistant subpopulation.
# [3] = system: Escherichia coli (ATCC 25922); experiment: Dose-fractionation study in a one-compartment in vitro infection model; assay type: cell-based
# Method: (§3) A dose-fractionation study was conducted utilizing a wild-type strain of Escherichia coli (ATCC 25922; fosfomycin MIC=0.5 mg/L agar; 1 mg/L broth microtiter) in a one-compartment in vitro infection model where the human drug concentration-time profile was simulated over a 24 hour study period.
# In such a circumstance, one way to overcome the poor sensitivity of the susceptibility test method is to increase the inoculum size and/or the volume of test system. The one-compartment in vitro infection model is a much more sensitive tool to measure the drug concentration required to inhibit a clinically relevant bacterial inoculum owing to its ability accommodate a higher inoculum and the larger volume (125 mL) of the test system. For this reason, dose-fractionation studies were conducted using a one-compartment in vitro infection model to identify the PK-PD measure most closely associated with efficacy.
# as §2
# [4] = system: Escherichia coli (ATCC 25922); experiment: Susceptibility test (MIC) of fosfomycin against wild-type Escherichia coli; assay type: cell-based
# Method: MIC as used herein refers to the minimum inhibitory concentration (MIC) of an antimicrobial that will inhibit the visible growth of a microorganism after overnight incubation. MICs are important in diagnostic laboratories to confirm resistance of microorganisms to an antimicrobial agent and also to monitor the activity of new antimicrobial agents. A MIC is generally regarded as the most basic laboratory measurement of the activity of an antimicrobial agent against an organism. Clinically, the MICs are used not only to determine the amount of antibiotic that a patient will receive but also the type of antibiotic used, which in turn lowers the opportunity for microbial resistance to specific antimicrobial agents. Applying MIC testing to a number of bacterial strains in the same species provides an estimate of the concentration that inhibits 50% (MIC50) and 90% (MIC90) of bacterial isolates and can indicate shifts in susceptibility of bacterial populations to antibiotics.
# as §3, §1
compound,measurement,setting,value
C[C@@H]1O[C@@H]1P(=O)(O)O [fosfomycin],density of the drug-resistant subpopulation in the thighs after 24 hours of therapy,[1]; dose range 1.56 to 400 mg/kg every 3 hours,eliminated at the highest dose-level
same,PK-PD measure correlated with change in log10 CFU in the thighs after 24 hours of therapy,"[1]; dosing intervals of 3, 6, 12, and 24 hours",% T>RIC was well-correlated with change in bacterial density
same,MIC,"[2]; Escherichia coli, ATCC25922, agar",32 to 64 µg/mL
same,agar MIC of the fosfomycin-resistant subpopulation,[2]; agar,32 µg/mL
same,relation of bacterial killing to dosing interval,"[3]; at maximally effective AUC0-24:RIC ratios and free-drug % T>RIC, 24 hour","as the duration of the dosing interval decreases, the amount of bacterial killing increases"
same,range of the change in bacterial density at 24 hours between regimens,"[3]; regimens identical in total daily dose and % T>MIC (100%), differing in dosing interval, simulated human concentration-time profile",8 log10
same,MIC,"[4]; ATCC25922, E. coli ATCC 25922 challenge isolate, method not stated, read-out: fosfomycin MIC of the challenge isolate",1 µg/mL
same,MIC,"[4]; ATCC25922, agar, wild-type E. coli ATCC 25922, read-out: fosfomycin MIC (agar)",0.5 µg/mL
same,MIC,"[4]; ATCC25922, broth microtiter, wild-type E. coli ATCC 25922, read-out: fosfomycin MIC (broth microtiter)",1 µg/mL
